Reference: PubChem BioAssay AID2060908 (Molecular Pharmacology Branch, DTP, NCI, 2025)

Test system: 186277-243-T-J2-PDC complex spheroids, viability
Test: Anticancer human tumor 186277-243-T-J2-PDC patient-derived colon adenocarcinoma cell line growth inhibition [RAS]
Conditions: for viability, T/C: stronger effect = lower value
Method in brief: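 Agents were tested in combination matrices in half-log decrements from a top concentration at or near clinical Cmax (10 microM if undetermined). Targets were multi-cell spheroids of tumour lines plus HUVEC and MSC stromal cells.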

[1] = curve of first compound, second compound 0.0316 µM
[2] = curve of first compound, second compound 0.1 µM
[3] = curve of first compound, second compound 0.316 µM
[4] = curve of first compound, second compound 1 µM
[5] = second compound 0.0316 µM, first compound 0.0316 µM
[6] = second compound 0.0316 µM, first compound 0.1 µM
[7] = second compound 0.0316 µM, first compound 0.316 µM
[8] = second compound 0.0316 µM, first compound 1 µM
[9] = second compound 0.1 µM, first compound 0.0316 µM
[10] = second compound 0.1 µM, first compound 0.1 µM
[11] = second compound 0.1 µM, first compound 0.316 µM
[12] = second compound 0.1 µM, first compound 1 µM
[13] = second compound 0.316 µM, first compound 0.0316 µM
[14] = second compound 0.316 µM, first compound 0.1 µM
[15] = second compound 0.316 µM, first compound 0.316 µM
[16] = second compound 0.316 µM, first compound 1 µM
[17] = second compound 1 µM, first compound 0.0316 µM
[18] = second compound 1 µM, first compound 0.1 µM
[19] = second compound 1 µM, first compound 0.316 µM
[20] = second compound 1 µM, first compound 1 µM
[21] = curve of first compound, second compound 0.00316 µM
[22] = curve of first compound, second compound 0.01 µM
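Also: spheroids exposed to compounds for 7 days before viability read.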

C=CC(=O)N1CCN(c2nc(OCC3CCCN3C)nc3c(F)c(-c4nc(N)cc(C)c4C(F)(F)F)c(Cl)cc23)C(C)C1 (stereo not given) + C#Cc1c(F)ccc2cc(O)cc(-c3ncc4c(N5CC6CCC(C5)N6)nc(OCC56CCCN5CC(F)C6)nc4c3F)c12
IC50 [1]: > 1000 nM
IC50 [2]: 325 nM
IC50 [3]: < 3.16 nM
IC50 [4]: < 3.16 nM
IC50 (curve of first compound, second compound 3.16 µM): < 3.16 nM
IC50 (curve of first compound, second compound 10 µM): < 3.16 nM
viability, T/C (second compound 0.0316 µM, first compound 0.00316 µM): 75.1%
viability, T/C (second compound 0.0316 µM, first compound 0.01 µM): 97.6%
viability, T/C [5]: 84.3%
viability, T/C [6]: 78.3%
viability, T/C [7]: 79.5%
viability, T/C [8]: 54.6%
viability, T/C (second compound 0.1 µM, first compound 0.00316 µM): 69.6%
viability, T/C (second compound 0.1 µM, first compound 0.01 µM): 73.7%
viability, T/C [9]: 60.4%
viability, T/C [10]: 58.4%
viability, T/C [11]: 53.1%
viability, T/C [12]: 35.8%
viability, T/C (second compound 0.316 µM, first compound 0.00316 µM): 24.2%
viability, T/C (second compound 0.316 µM, first compound 0.01 µM): 35.7%
viability, T/C [13]: 37.8%
viability, T/C [14]: 25.2%
viability, T/C [15]: 33.2%
viability, T/C [16]: 24.2%
viability, T/C (second compound 1 µM, first compound 0.00316 µM): 18.1%
viability, T/C (second compound 1 µM, first compound 0.01 µM): 19.1%
viability, T/C [17]: 19.1%
viability, T/C [18]: 18.6%
viability, T/C [19]: 19%
viability, T/C [20]: 15.5%
viability, T/C (second compound 3.16 µM, first compound 0.00316 µM): 9.97%
viability, T/C (second compound 3.16 µM, first compound 0.01 µM): 14.1%
viability, T/C (second compound 3.16 µM, first compound 0.0316 µM): 12.5%
viability, T/C (second compound 3.16 µM, first compound 0.1 µM): 13.3%
viability, T/C (second compound 3.16 µM, first compound 0.316 µM): 15.5%
viability, T/C (second compound 3.16 µM, first compound 1 µM): 10.9%
viability, T/C (second compound 10 µM, first compound 0.00316 µM): 8.29%
viability, T/C (second compound 10 µM, first compound 0.01 µM): 9.21%
viability, T/C (second compound 10 µM, first compound 0.0316 µM): 11.5%
viability, T/C (second compound 10 µM, first compound 0.1 µM): 11%
viability, T/C (second compound 10 µM, first compound 0.316 µM): 11.3%
viability, T/C (second compound 10 µM, first compound 1 µM): 8.56%

CC(=O)OC12COC1CC(O)C1(C)C(=O)C(O)C3=C(C)C(OC(=O)C(O)C(NC(=O)OC(C)(C)C)c4ccccc4)CC(O)(C(OC(=O)c4ccccc4)C21)C3(C)C (stereo not given)
viability, T/C (compound 0.0316 µM): 8.57% [middle of 4 runs]
viability, T/C (compound 0.1 µM): 7.52% [middle of 4 runs]
viability, T/C (compound 0.316 µM): 7.03% [middle of 4 runs]
viability, T/C (compound 1 µM): 6.22% [middle of 4 runs]
viability, T/C (compound 3.16 µM): 5.95% [middle of 4 runs]
viability, T/C (compound 10 µM): 6.14% [middle of 4 runs]
IC50 (curve of compound): < 31.6 nM

CC1(C)CCC(Nc2ncc(C(F)(F)F)c(-c3c[nH]c4c(P(C)(C)=O)c(C#N)ccc34)n2)CN1 (stereo not given) + C=CC(=O)N1CCN(c2nc(OCC3CCCN3C)nc3c(F)c(-c4nc(N)cc(C)c4C(F)(F)F)c(Cl)cc23)C(C)C1
IC50 [21]: > 300 nM
IC50 [22]: > 300 nM
IC50 [1]: > 300 nM
IC50 [2]: > 300 nM
IC50 [3]: > 300 nM
IC50 [4]: > 300 nM
viability, T/C (second compound 0.00316 µM, first compound 0.000949 µM): 94.9%
viability, T/C (second compound 0.00316 µM, first compound 0.003 µM): 98.4%
viability, T/C (second compound 0.00316 µM, first compound 0.00949 µM): 143%
viability, T/C (second compound 0.00316 µM, first compound 0.03 µM): 66.8%
viability, T/C (second compound 0.00316 µM, first compound 0.0949 µM): 75.5%
viability, T/C (second compound 0.00316 µM, first compound 0.3 µM): 56.9%
viability, T/C (second compound 0.01 µM, first compound 0.000949 µM): 109%
viability, T/C (second compound 0.01 µM, first compound 0.003 µM): 115%
viability, T/C (second compound 0.01 µM, first compound 0.00949 µM): 146%
viability, T/C (second compound 0.01 µM, first compound 0.03 µM): 58.6%
viability, T/C (second compound 0.01 µM, first compound 0.0949 µM): 60.2%
viability, T/C (second compound 0.01 µM, first compound 0.3 µM): 66.4%
viability, T/C (second compound 0.0316 µM, first compound 0.000949 µM): 101%
viability, T/C (second compound 0.0316 µM, first compound 0.003 µM): 118%
viability, T/C (second compound 0.0316 µM, first compound 0.00949 µM): 135%
viability, T/C (second compound 0.0316 µM, first compound 0.03 µM): 85.4%
viability, T/C (second compound 0.0316 µM, first compound 0.0949 µM): 66.7%
viability, T/C (second compound 0.0316 µM, first compound 0.3 µM): 65.9%
viability, T/C (second compound 0.1 µM, first compound 0.000949 µM): 96.6%
viability, T/C (second compound 0.1 µM, first compound 0.003 µM): 120%
viability, T/C (second compound 0.1 µM, first compound 0.00949 µM): 120%
viability, T/C (second compound 0.1 µM, first compound 0.03 µM): 71.4%
viability, T/C (second compound 0.1 µM, first compound 0.0949 µM): 69.7%
viability, T/C (second compound 0.1 µM, first compound 0.3 µM): 63.2%
viability, T/C (second compound 0.316 µM, first compound 0.000949 µM): 103%
viability, T/C (second compound 0.316 µM, first compound 0.003 µM): 96%
viability, T/C (second compound 0.316 µM, first compound 0.00949 µM): 98.5%
viability, T/C (second compound 0.316 µM, first compound 0.03 µM): 82.2%
viability, T/C (second compound 0.316 µM, first compound 0.0949 µM): 65%
viability, T/C (second compound 0.316 µM, first compound 0.3 µM): 62.1%
viability, T/C (second compound 1 µM, first compound 0.000949 µM): 112%
viability, T/C (second compound 1 µM, first compound 0.003 µM): 102%
viability, T/C (second compound 1 µM, first compound 0.00949 µM): 114%
viability, T/C (second compound 1 µM, first compound 0.03 µM): 70.8%
viability, T/C (second compound 1 µM, first compound 0.0949 µM): 64.3%
viability, T/C (second compound 1 µM, first compound 0.3 µM): 68.5%

Cc1nc(N2CCC3(CC2)COC(C)C3N)c(CO)nc1Sc1ccnc(N)c1Cl (stereo not given) + C=CC(=O)N1CCN(c2nc(OCC3CCCN3C)nc3c(F)c(-c4nc(N)cc(C)c4C(F)(F)F)c(Cl)cc23)C(C)C1
IC50 [21]: > 10000 nM
IC50 [22]: > 10000 nM
IC50 [1]: > 10000 nM
IC50 [2]: > 10000 nM
IC50 [3]: > 10000 nM
IC50 [4]: > 10000 nM
viability, T/C (second compound 0.00316 µM, first compound 0.0316 µM): 102%
viability, T/C (second compound 0.00316 µM, first compound 0.1 µM): 102%
viability, T/C (second compound 0.00316 µM, first compound 0.316 µM): 127%
viability, T/C (second compound 0.00316 µM, first compound 1 µM): 108%
viability, T/C (second compound 0.00316 µM, first compound 3.16 µM): 116%
viability, T/C (second compound 0.00316 µM, first compound 10 µM): 78.9%
viability, T/C (second compound 0.01 µM, first compound 0.0316 µM): 99.8%
viability, T/C (second compound 0.01 µM, first compound 0.1 µM): 101%
viability, T/C (second compound 0.01 µM, first compound 0.316 µM): 94.4%
viability, T/C (second compound 0.01 µM, first compound 1 µM): 85.2%
viability, T/C (second compound 0.01 µM, first compound 3.16 µM): 89.2%
viability, T/C (second compound 0.01 µM, first compound 10 µM): 78.7%
viability, T/C [5]: 86.8%
viability, T/C [6]: 103%
viability, T/C [7]: 113%
viability, T/C [8]: 117%
viability, T/C (second compound 0.0316 µM, first compound 3.16 µM): 83.2%
viability, T/C (second compound 0.0316 µM, first compound 10 µM): 80.4%
viability, T/C [9]: 94%
viability, T/C [10]: 86.6%
viability, T/C [11]: 91.6%
viability, T/C [12]: 104%
viability, T/C (second compound 0.1 µM, first compound 3.16 µM): 87.7%
viability, T/C (second compound 0.1 µM, first compound 10 µM): 87.9%
viability, T/C [13]: 90.6%
viability, T/C [14]: 93.3%
viability, T/C [15]: 104%
viability, T/C [16]: 115%
viability, T/C (second compound 0.316 µM, first compound 3.16 µM): 95.7%
viability, T/C (second compound 0.316 µM, first compound 10 µM): 75.8%
viability, T/C [17]: 103%
viability, T/C [18]: 100%
viability, T/C [19]: 91.8%
viability, T/C [20]: 99.1%
viability, T/C (second compound 1 µM, first compound 3.16 µM): 92.6%
viability, T/C (second compound 1 µM, first compound 10 µM): 83.8%

C#Cc1c(F)ccc2cc(O)cc(-c3ncc4c(N5CC6CCC(C5)N6)nc(OCC56CCCN5CC(F)C6)nc4c3F)c12 (stereo not given)
viability, T/C (compound 0.0316 µM): 70% [middle of 8 runs]
viability, T/C (compound 0.1 µM): 62.6% [middle of 8 runs]
viability, T/C (compound 0.316 µM): 32.4% [middle of 8 runs]
viability, T/C (compound 1 µM): 18.4% [middle of 8 runs]
viability, T/C (compound 3.16 µM): 12.2% [middle of 8 runs]
viability, T/C (compound 10 µM): 10.1% [middle of 8 runs]
IC50 (compound alone, run of 06/10/2024): 160 nM [middle of 8 runs]
